In patent US20130005721A1, “INDOLIZINE INHIBITORS OF 5-LIPOXYGENASE” (PANMIRA PHARMACEUTICALS, LLC, priority 2009, published 2013) one finds IC50 data, which are given here for 26 compounds.

This experiment has as its system human leukocytes (LTB4 production, calcium ionophore stimulated). Briefly: Human Leukocyte LTB4 Inhibition Assay. It is filed as cell-based. The note with it: Leukocyte, LTB4 by ELISA, read-out: LTB4 HLA IC50. How it is done: Human Leukocyte LTB4 Inhibition Assay
A non-limiting example of a human leukocyte inhibition assay is as follows; Blood was drawn from consenting human volunteers into heparanized tubes and 3% dextran 0.9% saline ⅓ rd volume added. After sedimentation of red blood cells a hypotonic lysis of remaining red blood cells was performed and leukocytes sedimented at 1200 rpm. The pellet was resuspended at 1.25×10^5 cells/ml and aliquoted into wells containing 1 μL 100% DMSO (vehicle) or 2.5 μL drug in 100% DMSO. Samples were incubated for 5 minutes at 37° C. and 2 μL calcium ionophore […] (from a 50 mM DMSO stock diluted just prior to the assay in Hanks balanced salt solution (Invitrogen)) to 1.25 mM) was added, solutions mixed and incubated for 30 minutes at 37° C. Samples were centrifuged at 1,200 rpm (−200×g) for 10 minutes at 4° C., plasma removed and a 1:4 dilution assayed for LTB4 concentration using ELISA (Assay Designs). Drug concentrations to achieve 50% inhibition (IC50's) of vehicle LTB4 were determined by nonlinear regression (Graphpad Prism) of % inhibition versus log drug concentration.
For `CCOC(=O)CCNCc1cc2cc(Cn3cc(C(O)(CC)C(F)(F)F)nn3)ccn2c1-c1ccc(F)cc1` (centres unmarked) [Compound 1-37, 3-({3-(4-Fluoro-phenyl)-7-[4-(1-hydroxy-1-trifluoromethyl-propyl)-[1,2,3]triazol-1-ylmethyl]-indolizin-2-ylmethyl}-amino)-propionic acid ethyl ester], the IC50 is below 300 nM.

For the compound `CCC(O)(c1cn(Cc2ccn3c(-c4ccc(F)cc4)c(C(=O)N4CCS(=O)(=O)C4)cc3c2)nn1)C(F)(F)F` (centres unmarked) [Compound 1-50, (1,1-Dioxo-1λ^6-thiazolidin-3-yl)-{3-(4-fluoro-phenyl)-7-[4-(1-hydroxy-1-trifluoromethyl-propyl)-[1,2,3]triazol-1-ylmethyl]-indolizin-2-yl}-methanone], the IC50 was above 1000 nM. In the case of `CCC(O)(c1cn(Cc2ccn3c(-c4ccnc(C)c4)c(C#N)cc3c2)nn1)C(F)(F)F` (single isomer, unassigned) [Compound 1-80, 7-[4-(1-Hydroxy-1-trifluoromethyl-propyl)-[1,2,3]triazol-1-ylmethyl]-3-(2-methyl-pyridin-4-yl)-indolizine-2-carbonitrile], the half-maximal inhibitory concentration (IC50) was below 300 nM. As for `CCOC(=O)c1c(C(=O)C(F)(F)F)c2cc(Cn3cc(C(CC)(OC(=O)c4ccc([N+](=O)[O-])cc4)C(F)(F)F)nn3)ccn2c1-c1ccc(OC)nc1` (single isomer, unassigned) [Compound 1-84, 3-(6-Methoxy-pyridin-3-yl)-7-{4-[1-(4-nitro-benzoyloxy)-1-trifluoromethyl-propyl]-[1,2,3]triazol-1-ylmethyl}-1-(2,2,2-trifluoro-acetyl)-indolizine-2-carboxylic acid ethyl ester], the half-maximal inhibitory concentration (IC50) was 300 to 1000 nM. On to `CCC(O)(c1cn(Cc2ccn3c(-c4ccc(F)cc4)c(C#N)cc3c2)nn1)C(F)(F)F` (centres unmarked) [Compound 1-16, 3-(4-Fluoro-phenyl)-7-[4-(1-hydroxy-1-trifluoromethyl-propyl)-[1,2,3]triazol-1-ylmethyl]-indolizine-2-carbonitrile], for which the IC50 was below 300 nM. Next, `CCOC(=O)c1cc2cc(Cn3cc(C(CC)(OC(=O)c4ccc([N+](=O)[O-])cc4)C(F)(F)F)nn3)ccn2c1-c1ccc(OC)nc1` (single isomer, unassigned) [Compound 1-85, 3-(6-Methoxy-pyridin-3-yl)-7-{4-[1-(4-nitro-benzoyloxy)-1-trifluoromethyl-propyl]-[1,2,3]triazol-1-ylmethyl}-indolizine-2-carboxylic acid ethyl ester]: 300 to 1000 nM; `CCC(O)(c1nnc(NCc2ccn3c(-c4ccc(F)cc4)c(C(N)=O)cc3c2)o1)C(F)(F)F` (single isomer, unassigned) [Compound 1-20, 3-(4-Fluoro-phenyl)-7-{[5-(1-hydroxy-1-trifluoromethyl-propyl)-[1,3,4]oxadiazol-2-ylamino]-methyl}-indolizine-2-carboxylic acid amide]: below 300 nM.

`CCOC(=O)c1cc2cc(Cn3cc(C(O)(CC)C(F)(F)F)nn3)ccn2c1-c1ccc(F)nc1` (centres unmarked) [Compound 1-29, 3-(6-Fluoro-pyridin-3-yl)-7-[4-(1-hydroxy-1-trifluoromethyl-propyl) [1,2,3]triazol-1-ylmethyl]-indolizine-2-carb oxylic acid ethyl ester]: the 50% inhibitory concentration (IC50) was below 300 nM.

For `CCOC(=O)c1cc2cc(Cn3cc(C(O)(CC)C(F)(F)F)nn3)ccn2c1Cl` (single isomer, unassigned) [Compound 1-87, 3-Chloro-7-[4-(1-hydroxy-1-trifluoromethyl-propyl)-[1,2,3]triazol-1-ylmethyl]-indolizine-2-carboxylic acid ethyl ester], the 50% inhibitory concentration (IC50) is below 300 nM.

Consider `CCC(O)(c1cn(Cc2ccn3c(-c4ccc(F)cc4)c(/C=C/C(N)=O)cc3c2)nn1)C(F)(F)F` (centres unmarked) [Compound 1-43, (E)-3-{3-(4-Fluoro-phenyl)-7-[4-(1-hydroxy-1-trifluoromethyl-propyl)-[1,2,3]triazol-1-ylmethyl]-indolizin-2-yl}-acrylamide], for which the IC50 was below 300 nM.

As for `CCOC(=O)c1c(Br)c2cc(CNc3nnc(C(O)(CC)C(F)(F)F)o3)ccn2c1-c1ccc(F)cc1` (centres unmarked) [Compound 1-15, 1-Bromo-3-(4-fluoro-phenyl)-7-{[5-(1-hydroxy-1-trifluoromethyl-propyl)-[1,3,4]oxadiazol-2-ylamino]-methyl}-indolizine-2-carboxylic acid ethyl ester], the half-maximal inhibitory concentration (IC50) is below 300 nM. For the compound `CCOC(=O)c1nc2cc(CNc3nnc(C(O)(CC)C(F)(F)F)o3)ccn2c1-c1ccccc1` (centres unmarked) [Compound 1-12, 7-{[5-(1-Hydroxy-1-trifluoromethyl-propyl)-[1,3,4]oxadiazol-2-ylamino]-methyl}-3-phenyl-imidazo[1,2-a]pyridine-2-carboxylic acid ethyl ester], the IC50 was below 300 nM. Consider `CCOC(=O)c1cc2cc(Cn3cc(C(O)(CC)C(F)(F)F)nn3)ccn2c1-c1cccc(S(C)(=O)=O)c1` (centres unmarked) [Compound 1-47, 7-[4-(1-Hydroxy-1-trifluoromethyl-propyl)-[1,2,3]triazol-1-ylmethyl]-3-(3-methanesulfonyl-phenyl)-indolizine-2-carboxylic acid ethyl ester], for which the IC50 is below 300 nM.

As to `CCOC(=O)c1cc2cc(Cn3cc(C(O)(CC)C(F)(F)F)nn3)ccn2c1-c1ccc(Cl)cc1` (centres unmarked) [Compound 1-27, 3-(4-Chloro-phenyl)-7-[4-(1-hydroxy-1-trifluoromethyl-propyl)-[1,2,3]triazol-1-ylmethyl]-indolizine-2-carboxylic acid ethyl ester], the IC50 is below 300 nM. Next, `CCC(O)(c1cn(Cc2ccn3c(-c4ccc(C)nc4)c(C(N)=O)cc3c2)nn1)C(F)(F)F` (centres unmarked) [Compound 1-71, 7-[4-(1-Hydroxy-1-trifluoromethyl-propyl)-[1,2,3]triazol-1-ylmethyl]-3-(6-methyl-pyridin-3-yl)-indolizine-2-carboxylic acid amide]: above 1000 nM; `CCC(O)(c1cn(Cc2ccn3c(-c4ccc(F)cc4)c(CO)cc3c2)nn1)C(F)(F)F` (centres unmarked) [Compound 1-30, 1,1,1-Trifluoro-2-{1-[3-(4-fluoro-phenyl)-2-hydroxymethyl-indolizin-7-ylmethyl]-1H-[1,2,3]triazol-4-yl}-butan-2-ol]: below 300 nM. As to `CCC(O)(c1cn(Cc2ccn3c(-c4cnc5ccccc5c4)c(C#N)cc3c2)nn1)C(F)(F)F` (centres unmarked) [Compound 1-53, 7-[4-(1-Hydroxy-1-trifluoromethyl-propyl)-[1,2,3]triazol-1-ylmethyl]-3-quinolin-3-yl-indolizine-2-carbonitrile], the half-maximal inhibitory concentration (IC50) is below 300 nM. For `CCC(O)(c1cn(Cc2ccn3c(-c4ccc(OC)nc4)c(C#N)cc3c2)nn1)C(F)(F)F` (single isomer, unassigned) [Compound 1-79, 7-[4-(1-Hydroxy-1-trifluoromethyl-propyl)-[1,2,3]triazol-1-ylmethyl]-3-(6-methoxy-pyridin-3-yl)-indolizine-2-carbonitrile], the IC50 is below 300 nM. On to `CCOC(=O)c1cc2cc(Cn3ncc(C(O)(CC)C(F)(F)F)n3)ccn2c1-c1ccc(F)cc1` (centres unmarked) [Compound 1-3, 3-(4-Fluoro-phenyl)-7-[4-(1-hydroxy-1-trifluoromethyl-propyl)-[1,2,3]triazol-2-ylmethyl]-indolizine-2-carboxylic acid ethyl ester], for which the IC50 is below 300 nM. Regarding `CCC(OC)(c1cn(Cc2ccn3c(-c4ccc(F)cc4)c(COC)cc3c2)nn1)C(F)(F)F` (centres unmarked) [Compound 1-45, 3-(4-Fluoro-phenyl)-2-methoxymethyl-7-[4-(1-methoxy-1-trifluoromethyl-propyl)-[1,2,3]triazol-1-ylmethyl]-indolizine], the IC50 is below 300 nM. On to `CCNC(=O)c1cc2cc(Cn3cc(C(O)(CC)C(F)(F)F)nn3)ccn2c1-c1ccc(F)cc1` (centres unmarked) [Compound 1-55, 3-(4-Fluoro-phenyl)-7-[4-(1-hydroxy-1-trifluoromethyl-propyl)-[1,2,3]triazol-1-ylmethyl]-indolizine-2-carboxylic acid ethylamide], for which the IC50 was in the range of 300 to 1000 nM. On to `CCC(O)(c1cn(Cc2ccn3c(-c4ccc(F)cc4)c(C(N)=O)nc3c2)nn1)C(F)(F)F` (centres unmarked) [Compound 1-14, 3-(4-Fluoro-phenyl)-7-[4-(1-hydroxy-1-trifluoromethyl-propyl)-[1,2,3]triazol-1-ylmethyl]-imidazo[1,2-a]pyridine-2-carboxylic acid amide], for which the IC50 was 300 to 1000 nM. As to `CCC(O)(c1cn(Cc2ccn3c(-c4ccc(OC)nc4)c(C#N)cc3c2)nn1)C(F)(F)F` (centres unmarked) [Compound 1-57, 7-[4-(1-Hydroxy-1-trifluoromethyl-propyl)-[1,2,3]triazol-1-ylmethyl]-3-(6-methoxy-pyridin-3-yl)-indolizine-2-carbonitrile], the 50% inhibitory concentration (IC50) is below 300 nM. As to `CCC(O)(c1cn(Cc2ccn3c(-c4ccc(F)cc4)c(COC)cc3c2)nn1)C(F)(F)F` (centres unmarked) [Compound 1-44, 1,1,1-Trifluoro-2-{1-[3-(4-fluoro-phenyl)-2-methoxymethyl-indolizin-7-ylmethyl]-1H-[1,2,3]triazol-4-yl}-butan-2-ol], the half-maximal inhibitory concentration (IC50) was below 300 nM. For the compound `CCC(O)(c1cn(Cc2ccn3c(-c4ccc(OC)nc4)c(C(N)=O)cc3c2)nn1)C(F)(F)F` (single isomer, unassigned) [Compound 1-78, 7-[4-(1-Hydroxy-1-trifluoromethyl-propyl)-[1,2,3]triazol-1-ylmethyl]-3-(6-methoxy-pyridin-3-yl)-indolizine-2-carboxylic acid amide], the IC50 is below 300 nM. On to `CCC(O)(c1cnc(Sc2ccn3cc(C(=O)O)cc3c2)s1)C(F)(F)F` (centres unmarked) [Compound 1-2, 7-[5-(1-Hydroxy-1-trifluoromethyl-propyl)-thiazol-2-ylsulfanyl]-indolizine-2-carboxylic acid], for which the 50% inhibitory concentration (IC50) was above 1000 nM.
